Source: US9376369B2, “Anti-cholesterolemic compounds and methods of use” (priority 2006, dated 2016)

Experiments:
[1] = tested on: human aortic smooth muscle cells; assay: Cholesterol biosynthesis ([14C]acetate incorporation) in cultured cells with ox-LDL; format: cell-based; conditions: for hypocholesterolemic activity: purified compounds isolated from EO, cell-based bioassay
Procedure: Cells were incubated with aqueous extracts of O. sanctum (JH-1), EO (JH-2), W. somnifera (JH-3) and EuMil (JH-4) at concentration 500 μg/ml in medium supplemented with 100 μg/ml oxidized LDL. Cells incubated with 100 μg/ml ox-LDL served as a control. [14C] acetate (2 μCi/ml) was added and incorporation of radioactivity into cholesterol and cholesteryl esters was measured after 24 h of incubation in standard cell culture conditions. Lovastatin (10 μM) plus ox-LDL served as a positive control.
H-ASMC (×10^5) were seeded in plastic 6-well trays and grown in smooth muscle cells medium-2 (Cambrex). Incubation was pursued in a water-jacketed incubator with 5% CO2 and 95% air. After the cells reached confluence medium was replaced by plain serum-free medium. Following incubation for 24 h fresh medium, 100 μg/ml ox-LDL and various herbal fractions solubilized in 12.5% DMSO were added. Cells that were incubated with lovastatin (10 μM) served as a positive control in all experiments.
Cells were incubated with and without ox-LDL and EuMil/ingredients and [14C] acetate ([…], 24 h). Next, medium was removed; the monolayers were washed three times with PBS. Cells were extracted with hexane:isopropanol (3:2 by volume, 2×3 ml) at room temperature. The extracts were pooled in glass tubes and total lipid extract dried in nitrogen atmosphere. 1N NaOH (1 ml) was added to each tube to solubilize proteins and the incubated overnight in open air. Next, water (2 ml) was added to the air dried tubes, the contents were mixed and utilized for protein measurement using BCA protein assay kit (Pierce, Rockford, Ill.)
The total lipid extracts were dried in stream of nitrogen, re-suspended in chloroform-methanol (2:1 by volume) and applied on a HPTLC silica gel plate. Standard solutions of cholesterol, monolein, diolein, triolein, fatty acid and cholesteryl oleate (50 μg each) also were applied to the plate. The plates were developed in heptane-ether-acetic acid (85:15:1 by volume). Following development, the plates were dried in air and exposed to an X-ray film for 2-3 days at […]. After the films were developed, the HPTLC plates were immersed in iodine vapors to identify the migration of individual neutral lipid molecular species. Gel areas, corresponding to cholesterol were scraped and radioactivity was measured using Beckman liquid scintillation spectrometer. The data was expressed as counts per mg protein. The incorporation of radioactivity in cells incubated with oxidized LDL was considered as 100% (control). All experimental values in cells treated with EuMil/ingredients plus oxidized LDL were expressed as a percentage of the control. All assays were conducted in triplicate.

[2] = tested on: human aortic smooth muscle cells; assay: Measurement of the level (mass) of cholesterol in cells; format: cell-based; conditions: active fractions 5 μg/ml
Procedure: FIG. 9 is a graph showing the effect of active fractions from EO on cholesterol level in human ASMC. Cells were incubated with active fractions (5 μg/ml) and cholesterol mass was determined.
Following treatment cells were extracted with hexane-isopropanol 3:2 by volume as described above. The pooled extracts were dried in a stream of nitrogen and subjected to measurement of total cholesterol mass using a cholesterol kit (WAKO chemicals, VA) with cholesterol as the standard. The data was expressed as μg cholesterol per mg protein.

[3] = tested on: human aortic smooth muscle cells; assay: Cholesterol efflux ([3H]cholesterol); format: cell-based; conditions: 24 h with fractions after [3H]cholesterol labelling
F344 rats = conditions: both sexes, 5% GA in diet, week 1 to end of 13 weeks; cited from earlier work
[4] = tested on: human aortic smooth muscle cells; assay: Cholesterol uptake ([3H]cholesterol); format: cell-based; conditions: [3H]cholesterol 5 μCi/ml, serum-free medium, 24 h
Procedure: FIG. 11 is a graph showing the effect of active compounds from EO on uptake of cholesterol in human aortic smooth muscle cells. Confluent culture of cells grown in 96 well plates was incubated in serum-free medium with [3H]cholesterol (5 μCi/ml) with and without active fractions. After 24 h the uptake of cholesterol was measured by scintillation spectrometry.
Confluent culture of human aortic smooth muscle cells were pre-incubated in serum-free DMEM for 24 h. Next, fresh medium and [3H]cholesterol (5 μCi/ml) plus various herbal compounds were added. Following incubation for 24 h and 48 h, [3H]cholesterol taken up by cell was measured by solubilization in 1 M NaOH and radioactivity measured.

[5] = Behaviour of mucic acid gallates in aqueous solution; format: physicochemical; conditions: as previously reported [22]
Description: It should be noted that the mucic acid gallates derivatives 7 and 9 equilibrate in aqueous solutions as previously reported, while 1-methyl mucate-2-gallate (8) is not an artifact of the isolation procedure as it could be isolated when only ethanol, water and acetonitrile were used.

H-ASMC = assay: Cell proliferation ([3H]thymidine incorporation); format: cell-based, human
Procedure: Following incubation for 18 h with and without ox-LDL and EuMil/ingredients and lovastatin [3H]thymidine ([…]) was added in 96 well dishes and incubation continued for 6 h at 37° C. Next, the cells were washed and the incorporation of [3H]thymidine into DNA was measured employing scintillation spectrometry. The data was calculated as dpm/well. All experimental values were expressed as a percentage of the control values (cells incubated with ox-LDL alone).

[6] = 10 μM plus 100 μg/ml ox-LDL, 24 h, ox-LDL alone = control

| Compound | hypocholesterolemic activity [1] | cellular mass / level of cholesterol in ASMC [2] | also measured |
| --- | --- | --- | --- |
| glucose-6-gallate (GG6) [Compound 5] | hypocholesterolemic active compounds | effective in decreasing cholesterol level |  |
| CCOC(=O)c1cc(O)c(O)c(O)c1 [Compound 2b, ethyl gallate] | hypocholesterolemic active compounds |  |  |
| O=C(O[C@@H]1O[C@H](CO)[C@@H](O)[C@H](O)[C@H]1O)c1cc(O)c(O)c(O)c1 [Compound 4, glucose-1-gallate (GG1)] | hypocholesterolemic active compounds |  |  |
| O=C(O)c1cc(O)c(O)c(O)c1 [Compound 1, gallic acid] | hypocholesterolemic active compounds |  | efflux of cholesterol from cultured H-ASMC [3]: effective; efflux of cholesterol from cultured H-ASMC ([3]; listed as gallate): very effective; body weight gain versus untreated controls (F344 rats): significantly lower |
| COC(=O)c1cc(O)c(O)c(O)c1 [Compound 2a, methyl gallate] | hypocholesterolemic active compounds |  | efflux of cholesterol from cultured H-ASMC [3]: very effective; inhibition of cholesterol uptake in H-ASMC [4]: markedly inhibit |
| mucic acid-2-gallate [Compound 7] | hypocholesterolemic active compounds | effective in decreasing cholesterol level | stability in aqueous solutions [5]: equilibrate |
| O=C(OC(C(=O)O)C1OC(=O)C(O)C1O)c1cc(O)c(O)c(O)c1 (centres unmarked) [Compound 9, mucic acid 1,4-lactone 5-gallate] | hypocholesterolemic active compounds | effective in decreasing cholesterol level | stability in aqueous solutions [5]: equilibrate |
| O=C(OC[C@H]1OC(OC(=O)c2cc(O)c(O)c(O)c2)[C@H](O)[C@@H](O)[C@@H]1O)c1cc(O)c(O)c(O)c1 (some centres unmarked) [Compound 6, glucose-1,6-digallate (DGG16)] | hypocholesterolemic active compounds | effective in decreasing cholesterol level |  |
| COC(=O)C(OC(=O)c1cc(O)c(O)c(O)c1)C(O)C(O)C(O)C(=O)O (centres unmarked) [Compound 8, 1-methyl mucate-2-gallate] | hypocholesterolemic active compounds | effective in decreasing cholesterol level |  |
| CC[C@H](C)C(=O)O[C@H]1C[C@@H](C)C=C2C=C[C@H](C)[C@H](CC[C@@H]3C[C@@H](O)CC(=O)O3)[C@H]21 [Lovastatin, lovastatin, reference compound] |  |  | biosynthesis of cholesterol compared to control [1, 6]: ~20%; biosynthesis of cholesteryl esters compared to control [1, 6]: ~50%; inhibition of cholesterol uptake in H-ASMC [4]: not effective; effect on cell proliferation (H-ASMC): did not appear to inhibit |
| O=C(OCC(O)CO)c1cc(O)c(O)c(O)c1 (centres unmarked) [Compound 3, glycerol-1-gallate] | hypocholesterolemic active compounds |  |  |
